Patent publication US10577363B2, “Substituted piperidine compounds” (EPIZYME, INC., priority 2014, dated 2020)

Target: SMYD3 (Homo sapiens (Human), UniProt Q9H7B4)
Test: SMYD3 biochemical assay (SPA, 3H-SAM methylation of MEKK2 protein substrate)
Details: Table 2A; read-out: SMYD3 Biochem IC50
From the text: S-adenosylmethionine (SAM), S-adenosylhomocysteine (SAH), Tris, Tween20, dimethylsulfoxide (DMSO), bovine skin gelatin (BSG), and Tris(2-carboxyethyl)phosphine hydrochloride solution (TCEP) were purchased from Sigma-Aldrich at the highest level of purity possible. ^3H-SAM was purchase from American Radiolabeled Chemicals with a specific activity of 80 Ci/mmol. 384-well opaque white OptiPlates and SPA beads (Perkin Elmer, catalog # RPNQ0013) were purchased from PerkinElmer.
N-terminally GST-tagged MEKK2 (MAP3K2) protein corresponding to reference sequence AAF63496.3 was purchased from Life Technologies (catalog # PV4010). This protein was expressed in High Five insect cells and purified to >85% purity. Protein identity was confirmed by MS/MS analysis after proteolytic digestion. The protein sequence used was:
Full-length human SMYD3 isoform 1 (BAB86333) was inserted into a modified pET21b plasmid containing a His6 tag and TEV and SUMO cleavage sites.
E. coli (BL21 codonplus RIL strain, Stratagene) were transformed with plasmid pEPZ553 by mixing competent cells and plasmid DNA and incubating on ice for 30 minutes followed by heat shock at 42° C. for 1 minute and cooling on ice for 2 minutes. Transformed cells were grown and selected on LB agar with 100 μg/mL ampicillin and 17 μg/mL chloramphenicol at 37° C. overnight. A single clone was used to inoculate 200 mL of LB medium with 100 μg/mL ampicillin and 17 μg/mL chloramphenicol and incubated at 37° C. on an orbital shaker at 180 rpm. Once in log growth, the culture was diluted 1:100 into 2 L of LB medium and grown until OD600 was about 0.3 after which the culture was incubated at 15° C. and 160 rpm. Once OD600 reached about 0.4, IPTG was added to a final concentration of 0.1 mM and the cells were grown overnight at 15° C. and 160 rpm. Cells were harvested by centrifugation at 8000 rpm, for 4 minutes at 4° C. and stored at −80° C. for purification.
The column was washed with Buffer B (Buffer A plus 20 mM imidazole) and His-tagged SMYD3 was eluted with Buffer C (Buffer A plus 300 mM imidazole). The His tag, TEV and SUMO cleavage sites were removed generating native SMYD3 by addition of ULP1 protein at a ratio of 1:200 (ULP1:SMYD3). Imidazole was removed by dialysis overnight in Buffer A. The dialyzed solution was applied to a second Nickel column and the native SMYD3 protein was collected from the column flow-through. The flow-through was dialyzed in Buffer D (25 mM Tris, 5% glycerol, 5 mM β-mercaptoethanol, 50 mM NaCl, pH7.8) and ULP1 was removed using a Q sepharose fast flow column.
General Procedure for SMYD3 Enzyme Assays on MEKK2 Protein Substrate
The assays were all performed in a buffer consisting of 25 mM Tris-Cl pH 8.0, 1 mM TCEP, 0.005% BSG, and 0.005% Tween 20, prepared on the day of use. […] DMSO (1 ul) was added to Columns 11, 12, 23, 24, rows A-H for the maximum signal control and 1 ul of SAH, a known product and inhibitor of SMYD3, was added to columns 11, 12, 23, 24, rows I-P for the minimum signal control. A cocktail (40 ul) containing the SMYD3 enzyme was added by Multidrop Combi (Thermo-Fisher). The compounds were allowed to incubate with SMYD3 for 30 min at room temperature, then a cocktail (10 ul) containing SAM and MEKK2 was added to initiate the reaction (final volume=51 ul). […] The assays were stopped by the addition of non-radiolabeled SAM (10 ul) to a final concentration of 100 uM, which dilutes the ^3H-SAM to a level where its incorporation into MEKK2 is no longer detectable. Radiolabeled MEKK2 was detected using a scintillation proximity assay (SPA). 10 uL of a 10 mg/mL solution of SPA beads in 0.5 M citric acid was added and the plates centrifuged at 600 rpm for 1 min to precipitate the radiolabeled MEKK2 onto the SPA beads. The plates were then read in a PerkinElmer TopCount plate reader to measure the quantity of ^3H-labeled MEKK2 as disintegrations per minute (dpm) or alternatively, referred to as counts per minute (cpm).

| IC50 | SMILES |
| --- | --- |
| 0.0051 µM | CNCCCCS(=O)(=O)N1CC[C@H](NC(=O)c2cc(C3CC3)on2)C[C@@H]1C [compound 561, 5-cyclopropyl-N-((2S,4S)-2-methyl-1-((4-(methylamino)butyl)sulfonyl)piperidin-4-yl)isoxazole-3-carboxamide] |

Same assay, conditions: average of n = 1 to n = 50; read-out: SMYD3 Biochem IC50

| SMILES | IC50 |
| --- | --- |
| COCCN(C)CCCS(=O)(=O)N1[C@@H]2CC[C@H]1C[C@@H](NC(=O)c1cc(C3CC3)on1)C2 [compound 665, 5-cyclopropyl-N-((1R,3r,5S)-8-((3-((2-methoxyethyl)(methyl)amino)propyl)sulfonyl)-8-azabicyclo[3.2.1]octan-3-yl)isoxazole-3-carboxamide] | 0.0868 µM |

Same assay, conditions: read-out: SMYD3 Biochem IC50

| IC50 | SMILES |
| --- | --- |
| 1.85 µM | CNc1ncccc1S(=O)(=O)N1C2CCCC1CC(NC(=O)c1cc(C3CC3)on1)C2 (centres unmarked) [compound 524, 5-cyclopropyl-N-(9-((2-(methylamino)pyridin-3-yl)sulfonyl)-9-azabicyclo[3.3.1]nonan-3-yl)isoxazole-3-carboxamide] |
| 0.0803 µM | CN(CCCN)c1ccc(S(=O)(=O)N2C3CCCC2CC(NC(=O)c2cc(C4CC4)on2)C3)cn1 (centres unmarked) [compound 517, N-(9-((6-((3-aminopropyl)(methyl)amino)pyridin-3-yl)sulfonyl)-9-azabicyclo[3.3.1]nonan-3-yl)-5-cyclopropylisoxazole-3-carboxamide] |

Same assay, conditions: read-out: SMYD3 Biochem IC50 (μM)*

| IC50 | SMILES |
| --- | --- |
| 2.56 µM | C[C@H]1CC(NC(=O)c2cc(C3CC3)on2)CCN1C(=O)[C@@H]1CC[C@H](N)C1 (stereo partly drawn) [compound 86, N-((2S)-1-((1R,3S)-3-aminocyclopentane-1-carbonyl)-2-methylpiperidin-4-yl)-5-cyclopropylisoxazole-3-carboxamide] |
| 1.04 µM | C[C@H]1C[C@@H](NC(=O)c2cc(C3CC3)on2)CCN1S(=O)(=O)CCC(F)(F)F [compound 236, 5-cyclopropyl-N-((2S,4S)-2-methyl-1-((3,3,3-trifluoropropyl)sulfonyl)piperidin-4-yl)isoxazole-3-carboxamide] |
| 32.5 µM | C[C@H]1CC(NC(=O)c2cc(C3CC3)on2)CCN1C(=O)CN (stereo partly drawn) [compound 52, 5-cyclopropyl-N-((2S)-1-glycyl-2-methylpiperidin-4-yl)isoxazole-3-carboxamide] |
| > 10 µM | C[C@H]1C[C@H](NC(=O)c2cc(C3CC3)on2)CCN1S(=O)(=O)N(C)C [compound 346, 5-cyclopropyl-N-((2S,4R)-1-(N,N-dimethylsulfamoyl)-2-methylpiperidin-4-yl)isoxazole-3-carboxamide] |
| 0.842 µM | C[C@H]1C[C@@H](NC(=O)c2cc(C3CC3)on2)CCN1C(=O)CC(CN)c1ccccc1 (stereo partly drawn) [compound 338, N-((2S,4S)-1-(4-amino-3-phenylbutanoyl)-2-methylpiperidin-4-yl)-5-cyclopropylisoxazole-3-carboxamide] |
| 2.6 µM | C[C@H]1CC(NC(=O)c2cc(C3CC3)on2)CCN1C(=O)C1(F)CCNCC1 (stereo partly drawn) [compound 207, 5-cyclopropyl-N-((2S)-1-(4-fluoropiperidine-4-carbonyl)-2-methylpiperidin-4-yl)isoxazole-3-carboxamide] |
| 4.79 µM | N[C@H]1CC[C@@H](C(=O)N2CCC(NC(=O)c3cc(C4CC4)on3)CC2)C1 [compound 182, N-(1-((1R,3S)-3-aminocyclopentane-1-carbonyl)piperidin-4-yl)-5-cyclopropylisoxazole-3-carboxamide] |
| 0.121 µM | C[C@H]1C[C@@H](NC(=O)c2cc(C3CC3)on2)CCN1S(=O)(=O)c1ccc(Cl)cn1 [compound 466, N-((2S,4S)-1-((5-chloropyridin-2-yl)sulfonyl)-2-methylpiperidin-4-yl)-5-cyclopropylisoxazole-3-carboxamide] |
| 1.06 µM | O=C(NC1CCN(C(=O)CC2CCNCC2)CC1)c1cc(C2CC2)on1 [compound 17, 5-cyclopropyl-N-(1-(2-(piperidin-4-yl)acetyl)piperidin-4-yl)isoxazole-3-carboxamide] |

| SMILES | IC50 |
| --- | --- |
| NCCCC(=O)N1C2CCCC1CC(NC(=O)c1cc(C3CC3)on1)C2 (centres unmarked) [compound 211, N-(9-(4-aminobutanoyl)-9-azabicyclo[3.3.1]nonan-3-yl)-5-cyclopropylisoxazole-3-carboxamide] | 5.85 µM |
